{"source": "paper PMC3681751", "about": "“Identification of a Novel Antimicrobial Peptide from Human Hepatitis B Virus Core Protein Arginine-Rich Domain (ARD)” (PLoS Pathogens, 2013)", "key": {"[1]": {"tested_on": "A. baumannii TCGH45530", "format": "cell-based, Acinetobacter baumannii", "conditions": "TCGH45530, 3 h", "excerpt": "(§1) Clinical isolates of Pseudomonas aeruginosa (NHRI-01, NHRI-02 and NHRI-04) were obtained through the program of Taiwan Surveillance of Antimicrobial Resistance (TSAR), National Health Research Institutes (NHRI), Taiwan. Acinetobacter baumannii (ATCC 17989, ATCC 17978 CR, ATCC19606, ATCC 19606 CR, TCGH 45530 and TCGH 46709) were obtained from Tzu-Chi Buddhist General Hospital (TCGH) in Taiwan, and clinical isolates (TCGH 45530 and TCGH 46709) were identified using the Vitek system (Biomerieux Vitek, Inc., Hazelwood, MO, USA). A. baumannii is defined as multidrug-resistant, when the organism is resistant to piperacillin, piperacillin-tazobactam, ampicillin/sulbactam, imipenem, ceftazidime, gentamicin, amikacin, tetracycline, chloramphenicol, ciprofloxacin, and cotrimoxazole. Susceptibility to colistin was determined using the broth-dilution method, in accordance with the guidelines of the Clinical and Laboratory Standards Institute (CLSI).\n(§2) All peptides were purchased from Yao-Hong Biotechnology Inc. (Taipei, Taiwan). Vendors provided data of peptide characterizations, including HPLC and Mass (data not shown). Antimicrobial activity was determined as described with some modifications as detailed below. Bacteria were grown overnight in Mueller–Hinton broth (Difco) at 37°C, and during the mid-logarithmic phase, bacteria were diluted to 10^6 CFU (colony formation unit)/ml in phosphate buffer (10 mM sodium phosphate and 50 mM sodium chloride, pH 7.2). Peptides were serially diluted in the same buffer. Fifty microliter (µl) of bacteria was mixed with fifty µl of peptides at varying concentrations followed by incubation at 37°C for 3 hours without shaking. At the end of incubation, bacteria were placed on Mueller-Hinton broth agar plates, and allowed growth at 37°C overnight for measurement of minimal bactericidal concentration (MBC). […] All peptides were tested in triplicate."}, "[2]": {"tested_on": "A. baumannii ATCC17978", "format": "cell-based, Acinetobacter baumannii", "conditions": "text summary over the A. baumannii strains of Table 2", "excerpt": "as §1, §2"}, "[3]": {"tested_on": "A. baumannii TCGH46709", "format": "cell-based, Acinetobacter baumannii", "conditions": "TCGH46709, 3 h", "excerpt": "as §1, §2"}, "[4]": {"tested_on": "P. aeruginosa NHRI-02", "format": "cell-based, Pseudomonas aeruginosa", "conditions": "NHRI-02, 3 h", "excerpt": "as §1, §2"}, "[5]": {"tested_on": "P. aeruginosa NHRI-04", "format": "cell-based, Pseudomonas aeruginosa", "conditions": "NHRI-04, 3 h", "excerpt": "as §1, §2"}, "[6]": {"tested_on": "P. aeruginosa NHRI-01", "format": "cell-based, Pseudomonas aeruginosa", "conditions": "colistin-resistant P. aeruginosa of Table 2", "excerpt": "as §1, §2"}, "[7]": {"tested_on": "P. aeruginosa", "assay": "Effect of added LPS on bactericidal activity", "format": "cell-based, Pseudomonas aeruginosa", "conditions": "2 µM peptide (1×MBC), LPS from P. aeruginosa or E. coli at 50 µg/ml, 3 hours, triplicates", "method": "To determine whether LPS of Gram-negative bacteria could serve as a potential target of HBc147-183, LPS (0.05 to 50 µg/ml) from either P. aeruginosa or E. coli (Sigma) were incubated with both P. aeruginosa and 2 µM HBc147-183 for three hours, respectively. […] In addition, HBc147-183 preferentially bound to the LPS from P. aeruginosa, rather than that from E. coli. However, the addition of anti-LPS antibody (Genetex Co.) cannot sufficiently neutralize the bactericidal activity of HBc147-183 (Figure 5). […] Alternatively, HBc147-183 and the anti-LPS polyclonal antibody used here could bind predominantly to two different epitopes on the LPS.\nFigure 5 Dose response effects of LPS and LPS antibody (triangle) on the bactericidal activity of HBc147-183. LPS from P. aeruginosa (square) and E. coli (diamond), and LPS antibody (triangle) were mixed with P. aeruginosa and HBc147-183 (1×MBC) for 3 hours. The bacteria were then plated on MH agar for the measurement of viability. Samples were measured in triplicates."}, "[8]": {"assay": "In vitro peptide-LPS binding on streptavidin beads (LAL test)", "set-up": "species or system Pseudomonas aeruginosa", "conditions": "biotinylated peptide 0-2.5 µM on streptavidin beads, 5 µg/ml LPS; unbound LPS by LAL test; triplicates", "method": "Several kinds of peptide-LPS or peptide-Lipid A binding assays were performed in this study: 1) Streptavidine-conjugated beads (Dynabeads MyOne Streptavidin T1, Invitrogen) were blocked by P. aeruginosa LPS (Sigma) at 37°C for 1.5 hour. After washing with PBST (PBS, pH 7.4 containing 0.1% (w/v) Tween-20), aliquots containing 250 pmol streptavidine-conjugated beads were incubated with a reaction mixture overnight at 4°C. The reaction mixture was prepared by mixing increasing amounts of biotinylated peptide HBc147-183 (0, 0.004, 0.02, 0.1, 0.5 and 2.5 µM) and 5 µg/ml P. aeruginosa LPS (Sigma) or 200 µg/ml E. coli lipid A (Sigma), at 37°C for 3 hour. After incubation overnight at 4°C, the reduction of LPS (or Lipid A) in the supernatants were measured by the Limulus Amebocyte Lysate (LAL) test (Charles River Endosafe) with an ELISA reader (Molecular Devices). The amount (EU/ml) of LPS was calculated according to the standard curve prepared with Endosafe Control Srandard Endotoxin. […] After trypsinization, the trypsin-released LPS in the supernatants were collected and measured by the Limulus Amebocyte Lysate (LAL) test. […] Plate-bound HBc147-183 was measured by streptavidin conjugated with HRP (1∶10000 dilution) for 1 hour at 37°C. […] The absorption was measured at 450 nm with a reference wavelength at 655 nm."}, "[9]": {"tested_on": "S. aureus", "assay": "Killing kinetics", "format": "cell-based, Staphylococcus aureus", "conditions": "4 µM peptide (1×MBC), 37°C, triplicates", "method": "For measurement of killing kinetics, bacteria and peptides were prepared as described above. Fifty µl of bacteria were mixed with fifty µl of peptides at the concentrations corresponding to MBC and were incubated at 37°C. At the indicated time, bacteria were serially diluted and placed on Mueller-Hinton broth agar plates for the viability measurement."}}, "note": "Residues, ends and D or L forms follow the SMILES beside them.", "data": [{"molecule": "CC(C)[C@H](NC(=O)[C@@H](NC(=O)[C@@H](N)[C@@H](C)O)C(C)C)C(=O)N[C@@H](CCCNC(=N)N)C(=O)N[C@@H](CCCNC(=N)N)C(=O)N[C@@H](CCCNC(=N)N)C(=O)NCC(=O)N[C@@H](CCCNC(=N)N)C(=O)N[C@@H](CO)C(=O)N1CCC[C@H]1C(=O)N[C@@H](CCCNC(=N)N)C(=O)N[C@@H](CCCNC(=N)N)C(=O)N[C@@H](CCCNC(=N)N)C(=O)N[C@H](C(=O)N1CCC[C@H]1C(=O)N[C@@H](CO)C(=O)N1CCC[C@H]1C(=O)N[C@@H](CCCNC(=N)N)C(=O)N[C@@H](CCCNC(=N)N)C(=O)N[C@@H](CCCNC(=N)N)C(=O)N[C@@H](CCCNC(=N)N)C(=O)N[C@@H](CO)C(=O)N[C@@H](CCC(N)=O)C(=O)N[C@@H](CO)C(=O)N1CCC[C@H]1C(=O)N[C@@H](CCCNC(=N)N)C(=O)N[C@@H](CCCNC(=N)N)C(=O)N[C@@H](CCCNC(=N)N)C(=O)N[C@@H](CCCNC(=N)N)C(=O)N[C@@H](CO)C(=O)N[C@@H](CCC(N)=O)C(=O)N[C@@H](CO)C(=O)N[C@@H](CCCNC(=N)N)C(=O)N[C@@H](CCC(=O)O)C(=O)N[C@@H](CO)C(=O)N[C@@H](CCC(N)=O)C(=O)N[C@@H](CS)C(=O)O)[C@@H](C)O", "note": "[HBc147-183] (H-TVVRRRGRSPRRRTPSPRRRRSQSPRRRRSQSRESQC-OH; N-terminus and C-terminus assumed)", "values": [{"measurement": "MBC", "setting": "[1]", "result": 2.30, "unit": "µg/mL"}, {"measurement": "MBC against colistin-sensitive and colistin-resistant A. baumannii", "setting": "[2]", "result": "0.5 to 1", "unit": "µM"}, {"measurement": "MBC", "setting": "[3]", "result": 4.59, "unit": "µg/mL"}, {"measurement": "MBC against colistin-sensitive P. aeruginosa", "setting": "[4]", "result": 4, "unit": "µM"}, {"measurement": "MBC", "setting": "[5]", "result": 18.36, "unit": "µg/mL"}, {"measurement": "MBC against colistin-resistant P. aeruginosa", "setting": "[6]", "result": "> 16", "unit": "µM"}, {"measurement": "Bactericidal activity in the presence of LPS", "setting": "[7]", "result": "significantly reduced"}, {"measurement": "Binding to LPS", "setting": "[8]", "result": "capable of binding to LPS"}, {"measurement": "Time to complete killing", "setting": "[9]", "result": 120, "unit": "min"}]}]}
